Experimental data published in the supplement of paper PMC10331698.
± gives the standard deviation of the averaged measurements.

Key:
Assay in all cases: level (log10 ratio to DMSO vehicle control); higher = higher biomarker level / cell amount than vehicle control
Conditions in all cases: in DMSO
[1] = compound: FC(F)C(F)(F)COCC1CO1 [((2,2,3,3-Tetrafluoropropoxy)methyl)oxirane]
Method: (§1)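 BioMAP Diversity Plus panel of 12 human primary cell co-culture systems (3C, 4H, LPS, SAg, BT, BF4T, BE3C, CASM3C, HDF3CGF, KF3CT, MyoF, Mphg). Compounds were added 1 h before stimulation and left for 24 h (MyoF 48 h; BT 72 h for soluble read-outs or 6 d for IgG). Biomarkers were read by ELISA, cytotoxicity by SRB, PBMC viability and proliferation by Alamar Blue. Each well value was divided by the mean of 8 DMSO control wells on the same plate and log10 transformed; duplicate blinded samples were tested at 4 concentrations.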

[2] = compound: C=C(C)C(=O)OCCC(F)(F)C(F)(F)C(F)(F)C(F)(F)C(F)(C(F)(F)F)C(F)(F)F [(Perfluoro-5-methylhexyl)ethyl 2-methylprop-2-enoate]
Method: as §1

[3] = compound: O=C(O)C(F)(F)C(F)(F)C(F)(F)C(F)(F)C(F)(F)C(F)(F)F [Perfluoroheptanoic acid]
Method: as §1

[4] = compound: O=C(O)C(F)(F)C(F)(F)C(F)(F)C(F)(F)C(F)(F)C(F)(F)C(F)(F)C(F)F [9-H-Perfluorononanoic acid]
Method: as §1

[5] = compound: O=C(O)C(F)(F)C(F)(F)OC(F)(F)F [Perfluoro-3-methoxypropanoic acid]
Method: as §1

[6] = compound: O=C(O)C(F)(F)OC(F)(F)C(F)(F)OC(F)(F)F [Perfluoro-3,6-dioxaheptanoic acid]
Method: as §1

Test System	level (log10) ([1]; 6700 nM)	level (log10) ([1]; 20000 nM)	level (log10) ([1]; 60000 nM)	level (log10) ([2]; 6700 nM)	level (log10) ([2]; 20000 nM)	level (log10) ([3]; 6700 nM)	level (log10) ([3]; 20000 nM)	level (log10) ([3]; 60000 nM)	level (log10) ([4]; 6700 nM)	level (log10) ([4]; 20000 nM)	level (log10) ([4]; 60000 nM)	level (log10) ([5]; 6700 nM)	level (log10) ([5]; 20000 nM)	level (log10) ([5]; 60000 nM)	level (log10) ([6]; 6700 nM)	level (log10) ([6]; 20000 nM)	level (log10) ([6]; 60000 nM)
KF3CT:MMP-9	0.0085 ± 0.0064	-0.005 ± 0.011	0.012 ± 0.011	-0.0045 ± 0.037	-0.027 ± 0.041	-0.0065 ± 0.0078	0.0165 ± 0.026	0.059 ± 0.025	-0.05 ± 0.013	0.004 ± 0.0014	0.0475 ± 0.011	-0.002 ± 0.0085	0.001 ± 0.0071	0.01 ± 0.014	-0.0195 ± 0.033	-0.0205 ± 0.05	-0.028 ± 0.034
KF3CT:PAI-I	0.004	-0.0085 ± 0.005	-0.0015 ± 0.012	-0.035 ± 0.047	-0.05 ± 0.018	-0.043 ± 0.016	-0.0355 ± 0.012	-0.013 ± 0.068	-0.0045 ± 0.0035	0.007 ± 0.0071	0.003 ± 0.0085	-0.0035 ± 0.0021	-0.0045 ± 0.0035	-0.0195 ± 0.026	0.0035 ± 0.096	0.009 ± 0.0085	0.008 ± 0.072
KF3CT:SRB	-0.0085 ± 0.0035	-0.0055 ± 0.0092	0.012 ± 0.034	-0.006 ± 0.0014	0.003 ± 0.016	-0.0065 ± 0.005	-0.006 ± 0.0085	0.007 ± 0.016	-0.0175 ± 0.005	-0.019 ± 0.0014	-0.032 ± 0.0042	-0.0145 ± 0.0035	-0.009 ± 0.0014	-0.002 ± 0.013	0.0035 ± 0.0021	-0.0015 ± 0.0021	-0.0045 ± 0.005
KF3CT:TIMP-2	-0.0135 ± 0.016	-0.0115 ± 0.019	-0.0045 ± 0.026	-0.016 ± 0.03	-0.041 ± 0.052	0.006 ± 0.021	0.0085 ± 0.025	0.031 ± 0.017	-0.0055 ± 0.03	-0.01 ± 0.014	0.016 ± 0.017	-0.0045 ± 0.025	0.0075 ± 0.035	0.004 ± 0.016	0.024 ± 0.069	-0.0365 ± 0.13	-0.01 ± 0.12
KF3CT:uPA	0.0015 ± 0.0092	-0.0045 ± 0.032	-0.0005 ± 0.015	0.007 ± 0.0057	0.007 ± 0.0028	0.007 ± 0.016	0.0065 ± 0.0021	0.0075 ± 0.013	0.006 ± 0.024	0.003 ± 0.024	-0.0115 ± 0.00071	0 ± 0.018	-0.0055 ± 0.012	0.002 ± 0.0085	-0.0175 ± 0.019	0.023 ± 0.033	0.017 ± 0.05
MyoF:CD106/VCAM-1	-0.0075 ± 0.0035	-0.025 ± 0.031	-0.011 ± 0.044	0.0095 ± 0.0092	-0.013 ± 0.0028	-0.013 ± 0.0071	-0.004 ± 0.016	-0.0125 ± 0.015	-0.015 ± 0.02	-0.0135 ± 0.005	-0.0125 ± 0.025	-0.014 ± 0.0042	0.0035 ± 0.013	0.001	0.001 ± 0.048	-0.0175 ± 0.028	-0.021 ± 0.051
MyoF:CXCL8/IL-8	-0.0175 ± 0.005	-0.0145 ± 0.018	0.0095 ± 0.025	-0.011 ± 0.011	-0.0255 ± 0.0064	0.002 ± 0.0042	0.0205 ± 0.005	0.0175 ± 0.035	0.021 ± 0.023	0.003 ± 0.013	-0.001 ± 0.023	0.001 ± 0.033	-0.0165 ± 0.0092	0.0475 ± 0.0078	-0.0255 ± 0.08	-0.0035 ± 0.03	0.0435 ± 0.019
MyoF:Collagen I	0.01 ± 0.0014	-0.005 ± 0.016	0.0155 ± 0.023	-0.0325 ± 0.037	-0.037 ± 0.02	-0.0225 ± 0.011	-0.006	0.0055 ± 0.043	0.0035 ± 0.0021	0.0025 ± 0.0035	-0.0365 ± 0.0092	0.006 ± 0.02	0 ± 0.016	0.0165 ± 0.013	-0.0185 ± 0.039	-0.002 ± 0.0099	-0.0155 ± 0.023
MyoF:Collagen III	-0.0045 ± 0.0035	-0.0105 ± 0.005	-0.005	-0.0135 ± 0.052	-0.0455 ± 0.04	-0.013 ± 0.018	-0.011 ± 0.018	-0.0055 ± 0.0078	-0.002 ± 0.0085	-0.003 ± 0.0042	-0.026 ± 0.018	0.004 ± 0.0099	0.0095 ± 0.0078	0.013 ± 0.0014	-0.025 ± 0.0014	-0.001 ± 0.017	0.027 ± 0.038
MyoF:Collagen IV	-0.0035 ± 0.013	-0.0065 ± 0.016	0.0065 ± 0.025	0.025 ± 0.02	0.058 ± 0.1	-0.0175 ± 0.022	-0.014 ± 0.013	0.0305 ± 0.07	0.039 ± 0.037	0.0365 ± 0.018	0.082 ± 0.03	-0.021 ± 0.02	0.002 ± 0.0085	0.009 ± 0.013	-0.011 ± 0.0085	0.0045 ± 0.013	0.0015 ± 0.021
MyoF:Decorin	-0.0065 ± 0.0035	-0.007 ± 0.0071	0.0075 ± 0.012	-0.006 ± 0.037	0.008 ± 0.052	-0.0015 ± 0.013	0.036 ± 0.0042	0.0505 ± 0.035	0.0315 ± 0.0035	0.051 ± 0.0071	0.093 ± 0.016	0.005 ± 0.017	0.0085 ± 0.0078	0.0085 ± 0.03	-0.0075 ± 0.03	-0.013 ± 0.017	0.012 ± 0.04
MyoF:MMP-1	0.0115 ± 0.0035	-0.031 ± 0.018	0.0045 ± 0.005	-0.023 ± 0.0057	-0.0365 ± 0.074	-0.0175 ± 0.0064	-0.0245 ± 0.011	0.021 ± 0.061	-0.015 ± 0.0099	-0.005	-0.0215 ± 0.023	-0.0135 ± 0.0064	0.0055 ± 0.011	0.0105 ± 0.043	-0.0045 ± 0.0021	-0.0545 ± 0.013	0.041 ± 0.054
MyoF:PAI-I	-0.008 ± 0.0028	-0.002 ± 0.0085	-0.0115 ± 0.0064	-0.0025 ± 0.011	-0.019 ± 0.0085	0 ± 0.016	-0.0215 ± 0.023	0.0025 ± 0.018	-0.0075 ± 0.011	0.004 ± 0.0042	-0.0025 ± 0.0092	0.0045 ± 0.016	-0.001 ± 0.0014	0.0025 ± 0.0035	-0.019 ± 0.038	-0.0245 ± 0.03	-0.0275 ± 0.025
MyoF:SRB	-0.003	-0.007 ± 0.0042	-0.0035 ± 0.0035	0.001 ± 0.014	-0.0035 ± 0.0078	-0.0005 ± 0.00071	0 ± 0.0085	-0.003 ± 0.021	0.015 ± 0.0042	0.003	-0.0105 ± 0.0064	-0.005 ± 0.0042	-0.004 ± 0.0028	0 ± 0.0014	-0.0055 ± 0.0035	-0.0015 ± 0.00071	0.004 ± 0.0085
MyoF:TIMP-1	0.0165 ± 0.018	-0.0295 ± 0.0092	-0.001 ± 0.023	-0.031 ± 0.023	-0.024 ± 0.0057	-0.011 ± 0.0042	0.0225 ± 0.0021	0.0515 ± 0.0064	0.0495 ± 0.044	0.0665 ± 0.019	0.117 ± 0.037	0.015 ± 0.055	0.0185 ± 0.033	0.0455 ± 0.012	-0.0305 ± 0.097	-0.006 ± 0.079	-0.001 ± 0.044
MyoF:alpha-SM Actin	-0.0185 ± 0.019	0.0015 ± 0.022	-0.0075 ± 0.03	-0.018 ± 0.037	-0.0255 ± 0.04	-0.028 ± 0.035	-0.0365 ± 0.022	-0.022 ± 0.024	-0.0215 ± 0.019	-0.0245 ± 0.013	-0.049 ± 0.014	0.0015 ± 0.00071	0.011 ± 0.035	0.039 ± 0.0028	-0.013 ± 0.0071	-0.027 ± 0.034	-0.0095 ± 0.018
MyoF:bFGF	0.012 ± 0.0057	0.0095 ± 0.0035	0.012 ± 0.011	-0.0015 ± 0.005	0.002 ± 0.0014	-0.029 ± 0.0085	-0.0255 ± 0.013	-0.0075 ± 0.0021	-0.0025 ± 0.021	0.0015 ± 0.012	-0.0055 ± 0.018	0.002 ± 0.018	-0.004 ± 0.037	0.0045 ± 0.025	-0.021 ± 0.023	0.0045 ± 0.023	-0.0095 ± 0.021
